Results published in US20240116988A1, “ANTI-ROR1 MACROCYCLIC PEPTIDES AND COMPOSITIONS” (BRISTOL-MYERS SQUIBB COMPANY, priority 2022, published 2024).
Positions of bridges follow the written chain, without caps; N, C: chain ends. Non-standard residues stand in square brackets, D forms with d. Residues, ends and D or L forms follow the SMILES beside them. ξ: configuration not given here. NMeF = CN[C@@H](Cc1ccccc1)C(=O)O; ξY = NC(Cc1ccc(O)cc1)C(=O)O; NMeA = CN[C@@H](C)C(=O)O

Target: T1, human ROR1 (Homo sapiens, UniProt Q01973)
T1 construct: host or cells: HEK 293T cells, Tet-on system induced with doxycycline
Experiment: ROR1 high content cell-based binding assay
Conditions: read-out: ROR1 Binding 293T Human HC Cell Based Assay IC50
Summary of the method: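 Doxycycline-induced 293T cells expressing human ROR1, seeded overnight, were treated with compound plus 5-FAM-labeled ROR1-binding probe peptide (30 nM final) for 1 h at 37 °C. After washing and formaldehyde/Hoechst fixation, cell-bound probe fluorescence was read by high-content imaging.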

T1 sequence (Q01973 30-937): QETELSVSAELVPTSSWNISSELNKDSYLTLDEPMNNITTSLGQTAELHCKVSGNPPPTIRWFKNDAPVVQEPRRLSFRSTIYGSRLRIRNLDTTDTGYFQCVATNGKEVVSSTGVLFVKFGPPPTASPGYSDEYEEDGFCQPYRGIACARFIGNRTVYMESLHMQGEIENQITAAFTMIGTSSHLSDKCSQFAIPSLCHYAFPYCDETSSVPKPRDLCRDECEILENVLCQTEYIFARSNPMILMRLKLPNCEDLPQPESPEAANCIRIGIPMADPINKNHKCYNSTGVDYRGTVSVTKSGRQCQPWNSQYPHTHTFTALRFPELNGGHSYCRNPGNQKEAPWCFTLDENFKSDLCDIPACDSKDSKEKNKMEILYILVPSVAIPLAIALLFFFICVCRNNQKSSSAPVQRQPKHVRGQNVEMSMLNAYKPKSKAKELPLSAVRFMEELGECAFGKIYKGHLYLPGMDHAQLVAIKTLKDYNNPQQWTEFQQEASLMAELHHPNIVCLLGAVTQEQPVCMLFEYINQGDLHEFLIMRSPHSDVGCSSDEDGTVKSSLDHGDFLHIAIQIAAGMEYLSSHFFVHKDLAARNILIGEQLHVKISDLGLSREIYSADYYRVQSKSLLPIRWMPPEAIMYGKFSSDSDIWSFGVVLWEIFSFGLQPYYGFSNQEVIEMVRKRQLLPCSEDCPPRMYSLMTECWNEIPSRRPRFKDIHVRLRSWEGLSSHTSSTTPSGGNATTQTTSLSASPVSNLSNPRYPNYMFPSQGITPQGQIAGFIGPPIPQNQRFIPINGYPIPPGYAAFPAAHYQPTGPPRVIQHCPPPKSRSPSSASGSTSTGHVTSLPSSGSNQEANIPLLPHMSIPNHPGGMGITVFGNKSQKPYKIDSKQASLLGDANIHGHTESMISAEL

Structure (SMILES)	IC50 [nM]
CC(C)C[C@@H]1NC(=O)[C@H](Cc2ccc(O)cc2)NC(=O)[C@H](Cc2ccccc2)NC(=O)CSC[C@@H](C(=O)NCC(N)=O)NC(=O)[C@H](CC(C)C)NC(=O)[C@H](Cc2ccccc2)N(C)C(=O)[C@H](Cc2ccc(O)cc2)NC(=O)[C@H](Cc2c[nH]c3ccccc23)NC(=O)[C@H](CCC(=O)O)NC(=O)[C@H](CO)NC(=O)[C@H](Cc2ccc(O)cc2)NC(=O)[C@H](C(C)C)NC1=O [Example 1053] ({CH2CO}-FYLVYSEWY[NMeF]LCG-NH2; thioether N-12)	760
CC(C)C[C@@H]1NC(=O)[C@H](Cc2ccc(O)cc2)NC(=O)[C@H](Cc2ccccc2)NC(=O)CSC[C@@H](C(=O)NCC(N)=O)NC(=O)[C@H](CC(C)C)NC(=O)[C@H](Cc2ccccc2)N(C)C(=O)[C@H](Cc2ccc(O)cc2)NC(=O)[C@H](Cc2c[nH]c3ccccc23)NC(=O)CNC(=O)[C@H](Cc2c[nH]c3ccccc23)NC(=O)[C@H](CCCNC(=N)N)NC(=O)[C@H](C(C)C)NC1=O [Example 1054] ({CH2CO}-FYLVRWGWY[NMeF]LCG-NH2; thioether N-12)	35
CC(C)C[C@@H]1NC(=O)[C@H](Cc2ccc(O)cc2)NC(=O)[C@H](Cc2ccccc2)NC(=O)CSC[C@@H](C(=O)NCC(N)=O)NC(=O)[C@H](CC(C)C)NC(=O)[C@H](Cc2ccccc2)N(C)C(=O)[C@H](Cc2ccc(O)cc2)NC(=O)[C@H](Cc2c[nH]c3ccccc23)NC(=O)CNC(=O)[C@H](Cc2ccc(O)cc2)NC(=O)[C@H](CCCNC(=N)N)NC(=O)[C@H](C(C)C)NC1=O [Example 1055] ({CH2CO}-FYLVRYGWY[NMeF]LCG-NH2; thioether N-12)	29
CC(C)C[C@@H]1NC(=O)[C@H](Cc2ccc(O)cc2)NC(=O)[C@H](Cc2ccccc2)NC(=O)CSC[C@@H](C(=O)NCC(N)=O)NC(=O)[C@H](CC(C)C)NC(=O)[C@H](Cc2ccccc2)N(C)C(=O)[C@H](Cc2ccc(O)cc2)NC(=O)[C@H](Cc2c[nH]c3ccccc23)NC(=O)[C@H](CCCCN)NC(=O)[C@H](CO)NC(=O)[C@H](Cc2ccc(O)cc2)NC(=O)[C@H](C(C)C)NC1=O [Example 1056] ({CH2CO}-FYLVYSKWY[NMeF]LCG-NH2; thioether N-12)	740
CC(C)C[C@@H]1NC(=O)[C@H](Cc2ccccc2)NC(=O)CSC[C@@H](C(=O)NCC(N)=O)NC(=O)[C@H](CC(C)C)NC(=O)[C@H](Cc2ccccc2)N(C)C(=O)[C@H](Cc2ccc(O)cc2)NC(=O)[C@H](Cc2c[nH]c3ccccc23)NC(=O)CNC(=O)[C@H](CO)NC(=O)[C@H](Cc2ccc(O)cc2)NC(=O)[C@H](C(C)C)NC(=O)[C@H](Cc2c[nH]c3ccccc23)NC1=O [Example 1058] ({CH2CO}-FLWVYSGWY[NMeF]LCG-NH2; thioether N-12)	755
CC(C)C[C@@H]1NC(=O)[C@H](Cc2ccc(O)cc2)NC(=O)[C@H](Cc2ccccc2)NC(=O)CSC[C@@H](C(=O)NCC(N)=O)NC(=O)[C@H](CC(C)C)NC(=O)[C@H](Cc2ccccc2)N(C)C(=O)C(Cc2ccc(O)cc2)NC(=O)[C@H](Cc2c[nH]c3ccccc23)NC(=O)[C@@H](C)NC(=O)[C@H](CO)NC(=O)[C@H](Cc2ccc(O)cc2)NC(=O)[C@H](C(C)C)NC1=O (stereo partly shown) [Example 1059] ({CH2CO}-FYLVYS[dA]W[ξY][NMeF]LCG-NH2; thioether N-12)	93
CC(C)C[C@@H]1NC(=O)[C@H](Cc2ccc(O)cc2)NC(=O)[C@H](Cc2ccccc2)NC(=O)CSC[C@@H](C(=O)NCC(N)=O)NC(=O)[C@H](CC(C)C)NC(=O)[C@H](Cc2ccccc2)N(C)C(=O)[C@H](Cc2ccc(O)cc2)NC(=O)[C@H](Cc2c[nH]c3ccccc23)NC(=O)CNC(=O)[C@H](CO)NC(=O)[C@@H](C)NC(=O)[C@H](C(C)C)NC1=O [Example 1060] ({CH2CO}-FYLV[dA]SGWY[NMeF]LCG-NH2; thioether N-12)	30
CC(C)C[C@@H]1NC(=O)[C@H](Cc2ccc(O)cc2)NC(=O)[C@H](Cc2ccccc2)NC(=O)CSC[C@@H](C(=O)NCC(N)=O)NC(=O)[C@@H](C)NC(=O)[C@H](Cc2ccccc2)N(C)C(=O)[C@H](Cc2ccc(O)cc2)NC(=O)[C@H](Cc2c[nH]c3ccccc23)NC(=O)CNC(=O)[C@H](CO)NC(=O)[C@H](Cc2ccc(O)cc2)NC(=O)[C@H](C(C)C)NC1=O [Example 1061] ({CH2CO}-FYLVYSGWY[NMeF][dA]CG-NH2; thioether N-12)	645
CC(C)C[C@@H]1NC(=O)[C@H](Cc2ccccc2)N(C)C(=O)[C@H](Cc2ccc(O)cc2)NC(=O)[C@H](Cc2c[nH]c3ccccc23)NC(=O)CNC(=O)[C@H](CO)NC(=O)[C@H](Cc2ccc(O)cc2)NC(=O)[C@H](C(C)C)NC(=O)[C@H](C)N(C)C(=O)[C@H](Cc2ccc(O)cc2)NC(=O)[C@H](Cc2ccccc2)NC(=O)CSC[C@@H](C(=O)NCC(N)=O)NC1=O [Example 1062] ({CH2CO}-FY[NMeA]VYSGWY[NMeF]LCG-NH2; thioether N-12)	20
CC(C)C[C@@H]1NC(=O)[C@H](Cc2ccc(O)cc2)NC(=O)[C@H](C)N(C)C(=O)CSC[C@@H](C(=O)NCC(N)=O)NC(=O)[C@H](CC(C)C)NC(=O)[C@H](Cc2ccccc2)N(C)C(=O)[C@H](Cc2ccc(O)cc2)NC(=O)[C@H](Cc2c[nH]c3ccccc23)NC(=O)CNC(=O)[C@H](CO)NC(=O)[C@H](Cc2ccc(O)cc2)NC(=O)[C@H](C(C)C)NC1=O [Example 1063] ({CH2CO}-[NMeA]YLVYSGWY[NMeF]LCG-NH2; thioether N-12)	576
CC(C)C[C@@H]1NC(=O)[C@H](Cc2ccc(O)cc2)NC(=O)[C@H](Cc2ccccc2)NC(=O)CSC[C@@H](C(=O)NCC(N)=O)NC(=O)[C@H](C)N(C)C(=O)[C@H](Cc2ccccc2)N(C)C(=O)[C@H](Cc2ccc(O)cc2)NC(=O)[C@H](Cc2c[nH]c3ccccc23)NC(=O)CNC(=O)[C@H](CO)NC(=O)[C@H](Cc2ccc(O)cc2)NC(=O)[C@H](C(C)C)NC1=O [Example 1064] ({CH2CO}-FYLVYSGWY[NMeF][NMeA]CG-NH2; thioether N-12)	199
CC(C)C[C@@H]1NC(=O)[C@H](Cc2ccc(O)cc2)NC(=O)[C@H](Cc2ccccc2)NC(=O)CSC[C@@H](C(=O)NCC(N)=O)NC(=O)CNC(=O)[C@H](Cc2ccccc2)N(C)C(=O)[C@H](Cc2ccc(O)cc2)NC(=O)[C@H](Cc2c[nH]c3ccccc23)NC(=O)CNC(=O)[C@H](CO)NC(=O)[C@H](Cc2ccc(O)cc2)NC(=O)[C@H](C(C)C)NC1=O [Example 1065] ({CH2CO}-FYLVYSGWY[NMeF]GCG-NH2; thioether N-12)	22
CC(C)C[C@@H]1NC(=O)[C@H](Cc2ccccc2)N(C)C(=O)[C@H](Cc2ccc(O)cc2)NC(=O)[C@H](Cc2c[nH]c3ccccc23)NC(=O)CNC(=O)[C@H](CO)NC(=O)[C@H](Cc2ccc(O)cc2)NC(=O)[C@H](C(C)C)NC(=O)[C@@H]2CCCN2C(=O)[C@H](Cc2ccc(O)cc2)NC(=O)[C@H](Cc2ccccc2)NC(=O)CSC[C@@H](C(=O)NCC(N)=O)NC1=O [Example 1066] ({CH2CO}-FYPVYSGWY[NMeF]LCG-NH2; thioether N-12)	5
CC(C)C[C@@H]1NC(=O)[C@H](Cc2ccc(O)cc2)NC(=O)[C@@H]2CCCN2C(=O)CSC[C@@H](C(=O)NCC(N)=O)NC(=O)[C@H](CC(C)C)NC(=O)[C@H](Cc2ccccc2)N(C)C(=O)[C@H](Cc2ccc(O)cc2)NC(=O)[C@H](Cc2c[nH]c3ccccc23)NC(=O)CNC(=O)[C@H](CO)NC(=O)[C@H](Cc2ccc(O)cc2)NC(=O)[C@H](C(C)C)NC1=O [Example 1067] ({CH2CO}-PYLVYSGWY[NMeF]LCG-NH2; thioether N-12)	515
CC(C)C[C@@H]1NC(=O)CNC(=O)[C@H](Cc2ccccc2)NC(=O)CSC[C@@H](C(=O)NCC(N)=O)NC(=O)[C@H](CC(C)C)NC(=O)[C@H](Cc2ccccc2)N(C)C(=O)[C@H](Cc2ccc(O)cc2)NC(=O)[C@H](Cc2c[nH]c3ccccc23)NC(=O)CNC(=O)[C@H](CO)NC(=O)[C@H](Cc2ccc(O)cc2)NC(=O)[C@H](C(C)C)NC1=O [Example 1068] ({CH2CO}-FGLVYSGWY[NMeF]LCG-NH2; thioether N-12)	453
CC(C)C[C@@H]1NC(=O)[C@H](Cc2ccc(O)cc2)NC(=O)[C@H](Cc2ccccc2)NC(=O)CSC[C@@H](C(=O)NCC(N)=O)NC(=O)[C@H](CC(C)C)NC(=O)[C@H](Cc2ccccc2)N(C)C(=O)[C@H](Cc2ccc(O)cc2)NC(=O)[C@H](Cc2c[nH]c3ccccc23)NC(=O)CNC(=O)[C@H](CO)NC(=O)[C@H](Cc2ccc(O)cc2)NC(=O)[C@H](CO)NC1=O [Example 1069] ({CH2CO}-FYLSYSGWY[NMeF]LCG-NH2; thioether N-12)	82
CC(C)C[C@@H]1NC(=O)[C@H](Cc2ccccc2)NC(=O)[C@H](Cc2ccc(O)cc2)NC(=O)[C@H](Cc2c[nH]c3ccccc23)NC(=O)CNC(=O)[C@H](CO)NC(=O)[C@H](Cc2ccc(O)cc2)NC(=O)[C@H](C(C)C)NC(=O)[C@H](CC(C)C)NC(=O)[C@H](Cc2ccc(O)cc2)NC(=O)[C@H](Cc2ccccc2)NC(=O)CSC[C@@H](C(=O)NCC(N)=O)NC1=O [Example 1070] ({CH2CO}-FYLVYSGWYFLCG-NH2; thioether N-12)	65
CC(C)C[C@@H]1NC(=O)[C@H](Cc2ccc(O)cc2)NC(=O)[C@H](Cc2ccccc2)NC(=O)CSC[C@@H](C(=O)NCC(N)=O)NC(=O)[C@H](CC(C)C)NC(=O)[C@H](Cc2ccccc2)N(C)C(=O)[C@H](Cc2ccc(O)cc2)NC(=O)[C@H](Cc2c[nH]c3ccccc23)NC(=O)[C@H](C)NC(=O)[C@H](CO)NC(=O)[C@H](Cc2ccc(O)cc2)NC(=O)[C@H](C(C)C)NC1=O [Example 1071] ({CH2CO}-FYLVYSAWY[NMeF]LCG-NH2; thioether N-12)	72
CC(C)C[C@@H]1NC(=O)CSC[C@@H](C(=O)NCC(N)=O)NC(=O)[C@H](CC(C)C)NC(=O)[C@H](Cc2ccccc2)N(C)C(=O)[C@H](Cc2ccc(O)cc2)NC(=O)[C@H](Cc2c[nH]c3ccccc23)NC(=O)CNC(=O)[C@H](CO)NC(=O)[C@H](Cc2ccc(O)cc2)NC(=O)[C@H](C(C)C)NC(=O)[C@H](CC(C)C)NC(=O)[C@H](Cc2ccc(O)cc2)NC1=O [Example 1072] ({CH2CO}-LYLVYSGWY[NMeF]LCG-NH2; thioether N-12)	80
